The numbers were not newly measured in patent US11266615B2, “Pyrimethamine-based pharmaceutical compositions and methods for fabricating thereof” (Harrow IP, LLC, priority 2018, dated 2022), which cites them from elsewhere.

For the data set the following is noted: background statement.

Turning to `CCc1nc(N)nc(N)c1-c1ccc(Cl)cc1` [pyrimethamine, 5-(4-chlorophenyl)-6-ethyl-pyrimidine-2,4-diamine], the solubility in water entry was “poor”.
